Measured values taken from US12263200B2, “Specific nutritional or therapeutic agent including a mixture of grape and blueberry” (priority 2015, dated 2025).

System: SK-N-SH cells
Test: Test 3: protection of neuronal cells against hydrogen peroxide (LDH cell death test, Resazurin cell survival test)
Format: cell-based, human
Conditions: for protection of cells against hydrogen peroxide, cumulative treatment, polyphenols taken individually (cell survival, Resazurin test): 1 μM, 1 nM and 1 pM for 3 consecutive days, then hydrogen peroxide 250 μM, analyzed 24 hours later; for protection of cells against hydrogen peroxide, acute treatment (cell death LDH release, survival Resazurin test): toxic hydrogen peroxide (250 μM), co-treated 24 hours at 1 μM, 1 nM and 1 pM
Procedure: For this, SK-N-SH cells, a cell line of human neuroblasts, were kept in a MEM supplemented with 10% (v/v) FBS, 100 U/ml of penicillin, 100 μg/ml of streptomycin and 1% sodium pyruvate (1 mM) in a humidified incubator at 37° C. with 5% CO2. The cells were grown to 80% confluence then seeded in multi-well cell culture plates to create different experimental models. The neuroprotective effect of the different compounds was analyzed by two different and complementary tests: the cell death quantification test and the cell survival test.
The cell death test is a colorimetric test based on measuring the activity of the lactate dehydrogenase (LDH) released by the cytosol from damaged cells in the supernatant.
The cell survival test was performed by conducting a Resazurin Test. Resazurin is an oxidation-reduction indicator of the permeable cell that can be used to monitor the number of viable cells by using tetrazolium compounds. The viable cells with an active metabolism can reduce resazurin into a resorufin product that is pink and fluorescent.
SK-N-SH neuronal cells were subjected to a toxic concentration of hydrogen peroxide (250 μM) and co-treated with epicatechin, catechin or ferulic acid at 1 μM, 1 nM and 1 pM for 24 hours. On completing the treatment, the cells were washed twice and cell death (release of LDH) and survival (Resazurin test) were analyzed.
In order to study the synergistic effect of epicatchin, catechin and ferulic acid, the SK-N-SH neuronal cells were subjected for 24 hours to a toxic concentration of hydrogen peroxide and co-treated with a mix comprising epicatechin, catechin and ferulic acid, said mix being tested at the different concentrations of 1 μM, 1 nM or 1 pM. On completing the treatment, the cells were washed twice and the cell death (release of LDH) and survival (Resazurin test) were analyzed.
The neuroprotective effects of the three polyphenols, i.e. epicatechin, catechin and ferulic acid, with a cumulative treatment, were then studied. The SK-N-SH cells were grown to 80% confluence then seeded in multi-well cell culture plates. […] On the third day, the cells were subjected to a toxic concentration of hydrogen peroxide (250 μM) and the protection was analyzed 24 hours later. On completing the treatment, the cells were washed twice and cell survival (Resazurin test) was analyzed.
In order to study the synergistic effect of epicatechin, catechin and ferulic acid, the SK-N-SH cells were grown to 80% confluence then seeded in multi-well cell culture plates. […] On the third day, the cells were subjected to a toxic concentration of hydrogen peroxide (125 μM and 250 μM) and the protection was analyzed 24 hours later. On completing the treatment, the cells were washed twice and cell survival (Resazurin test) was analyzed. […]

Compound	protection of cells against hydrogen peroxide, cumulative treatment, polyphenols taken individually (cell survival, Resazurin test)	protection of cells against hydrogen peroxide, acute treatment (cell death LDH release, survival Resazurin test)
COc1cc(/C=C/C(=O)O)ccc1O [ferulic acid]	do not protect the cells against hydrogen peroxide	do not protect the cells against hydrogen peroxide
catechin	do not protect the cells against hydrogen peroxide	do not protect the cells against hydrogen peroxide
